# Experimental data published in US20040028749A1, “Treating inflammation and associated complications” (priority 2000, published 2004).
# Target: MPO (Homo sapiens, UniProt P05164)
# Test: Stopped-flow kinetics of NO with MPO
# Type: biochemical
# Set-up: MPO was initially purified from detergent extracts of human leukocytes; from tissue; host or cells: human leukocytes (detergent extracts)
# Protocol: […] EPO was isolated from porcine whole blood obtained fresh at the slaughterhouse as described by Jorg et al. (1982) Biochim Biophys Acta 701:185-191. EPO was assayed by guaiacol oxidation (see Klebanoff et al. (1984) Methods Enzymol. 105:399-403). […] The concentration of the MPO dimer was calculated as half the indicated concentration of heme-like chromophore. Bovine LPO was obtained from Worthington Biochemistry Corporation (Lakewood, N.J.) and used without further purification.
# To examine the kinetics of interaction between NO and MPO Compounds I and II, stopped-flow spectroscopy was used. The kinetics of Compound II formation and decay in the absence and presence of different NO concentrations were performed using a dual syringe stopped-flow instrument obtained from Hi-Tech Ltd (model SF-51). Measurements were carried out under anaerobic atmosphere, at 25° C. and monitored at 455 nm (an isosbestic point of Compound I and MPO ground state) following rapid mixing of equal volumes of an H202-containing buffer solution and an MPO solution that contained different NO concentrations. The time course of absorbance change was fit to either single or double exponential functions as indicated. The rate constants for the formation (kon) and decay (koff) of the MPO-Fe(III)-NO complex in the presence of plasma levels of the alternative substrate Cl^− (100 mM) were determined by monitoring absorbance change at 430 nm at 10° C. […]
# Rapid kinetic studies were initially performed under Cl^− free conditions using 2 co-substrates, a fixed (low) level of H2O2 and variable levels of NO. […] The subsequent decrease in absorbance at 455 nm observed was also fit to a single exponential function with a rate constant of […] and was attributed to the decay of compound II.
# (An anaerobic solution containing sodium phosphate buffer (200 mM, pH 7.0) supplemented with H2O2 (20 μM) was rapidly mixed with an equal volume of buffer containing 0.86 μM of MPO-Fe(III) and differing concentrations of NO at 25° C.) NO was readily used as a one e^− substrate by Compound I, as indicated by the rapid buildup of MPO Compound II. […]
# In a parallel series of experiments, the influence of NO on the kinetics of MPO Compound II buildup, duration, and decay during steady-state catalysis in the presence of plasma levels of the competing substrate Cl^− was examined. Reactions were again performed under anaerobic conditions and the absorbance change at 455 nm monitored following rapid mixing of enzyme and various concentrations of NO (2.5, 12.5, 25 and 50 μM final) in the presence of H202 (10 μM final) and Cl^− (100 mM final). Anaerobic spectra of MPO-Fe(III) were recorded at 25° C. in septum-sealed quartz cuvettes that were equipped with a quick-fit joint for attachment to a vacuum system. […]
# MPO, sequence (P05164 279-745 limits assumed): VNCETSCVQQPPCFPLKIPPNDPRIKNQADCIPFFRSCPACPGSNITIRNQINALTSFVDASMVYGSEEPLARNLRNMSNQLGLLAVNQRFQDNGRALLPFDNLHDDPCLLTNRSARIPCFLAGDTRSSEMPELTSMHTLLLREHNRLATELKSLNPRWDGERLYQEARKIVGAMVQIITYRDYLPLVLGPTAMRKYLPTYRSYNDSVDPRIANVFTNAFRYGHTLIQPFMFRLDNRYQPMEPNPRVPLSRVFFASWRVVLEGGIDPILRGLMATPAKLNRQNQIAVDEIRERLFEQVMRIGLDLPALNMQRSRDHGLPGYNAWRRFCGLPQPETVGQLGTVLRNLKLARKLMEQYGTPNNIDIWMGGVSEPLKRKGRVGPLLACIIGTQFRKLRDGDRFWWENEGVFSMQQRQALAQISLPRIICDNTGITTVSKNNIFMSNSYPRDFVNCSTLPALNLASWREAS
# MPO, sequence (P05164 165-273 limits assumed): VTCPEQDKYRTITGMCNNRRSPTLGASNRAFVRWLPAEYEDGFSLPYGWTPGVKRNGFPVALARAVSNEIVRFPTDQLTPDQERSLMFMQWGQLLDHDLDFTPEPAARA
compound,measurement,setting,value
"[N]=O [NO, nitric oxide]",enhancement of rate of MPO Compound II accumulation,"10 μM H2O2, Cl^− free, 25° C.",~20 fold
same,koff,"100 mM Cl^−, 11° C., read-out: koff for NO binding to MPO-Fe(III)",22.3 s⁻¹
same,kon,"100 mM Cl^−, 11° C., read-out: kon for NO binding to MPO-Fe(III)",150000 M⁻¹ s⁻¹
same,second order rate constant of MPO Compound II decay,"Cl^− free, 25° C.",8×10^3 M^−1S^−1
